# Test results: US4065616A, “Processes for production of a 1-N-(α-hydroxy-.PHI.-amino alkanoyl)-3-deoxy-5-O-pentafuranosyl neamine and new compounds produced by the same processes” (Zaidan Hojin Biseibutsu Kagaku Kenkyu Kai, priority 1975, dated 1977)
# Like-named read-outs stand apart in the source and are kept apart here.
# Key:
# [1] = system: Pseudomonas aeruginosa GN 315; test: M.I.C. by standard serial dilution method; type: cell-based; conditions: GN315, P. aeruginosa GN 315, nutrient agar, 37° C, 18 hours, read-out: minimum inhibitory concentration (M.I.C.)
# Description: (§1) These particular compounds, that is, 1-n-(α-hydroxy-ω-aminoalkanoyl)-3'-deoxy-5-O-pentofuranosylneamines according to the aforesaid general formula (I) have useful antibacterial activity against a wide variety of bacteria, including gram-negative bacteria and gram-positive bacteria. The minimum inhibitory concentration (M.I.C.) (mcg/ml) of these compounds against various organisms was determined by a standard serial dilution method at an incubation temperature of 37° C, the estimation being made after 18 hours incubation or each test organism, except that the incubation time was 48 hours for Mycobacterium smegmatis. The incubation medium used was nutrient agar.
# [2] = system: Escherichia coli K-12 LA 290 R56; test: M.I.C. by standard serial dilution method; type: cell-based; conditions: K12LA290R56, 18 h, read-out: minimum inhibitory concentration (M.I.C.)
# Description: as §1
# [3] = system: Escherichia coli K-12 ML 1630; test: M.I.C. by standard serial dilution method; type: cell-based; conditions: K12ML1630, E. coli K-12 ML 1630, nutrient agar, 37° C, 18 hours, read-out: minimum inhibitory concentration (M.I.C.)
# Description: as §1
# [4] = system: Escherichia coli K-12 ML 1410 R81; test: M.I.C. by standard serial dilution method; type: cell-based; conditions: 18 h, read-out: minimum inhibitory concentration (M.I.C.)
# Description: as §1
# [5] = system: Escherichia coli K-12 JR66/W677; test: M.I.C. by standard serial dilution method; type: cell-based; conditions: K12JR66/W677, 18 h, read-out: minimum inhibitory concentration (M.I.C.)
# Description: as §1
# [6] = system: Klebsiella pneumoniae Type 22, No. 3038; test: M.I.C. by standard serial dilution method; type: cell-based; conditions: read-out: minimum inhibitory concentration (M.I.C.)
# Description: as §1
# Escherichia coli NIHJ = test: M.I.C. by standard serial dilution method; type: cell-based; conditions: read-out: minimum inhibitory concentration (M.I.C.)
# Description: as §1
# [7] = system: Escherichia coli K-12 W677; test: M.I.C. by standard serial dilution method; type: cell-based; conditions: read-out: minimum inhibitory concentration (M.I.C.)
# Description: as §1
# Salmonella typhosa T-63 = test: M.I.C. by standard serial dilution method; type: cell-based; conditions: Salmonella enterica, 18 h, read-out: minimum inhibitory concentration (M.I.C.)
# Description: as §1
# [8] = system: Escherichia coli K-12 ML 1629; test: M.I.C. by standard serial dilution method; type: cell-based; conditions: read-out: minimum inhibitory concentration (M.I.C.)
# Description: as §1
# Proteus rettgeri GN 311 = test: M.I.C. by standard serial dilution method; type: cell-based; conditions: Providencia rettgeri, GN311, nutrient agar, 37° C, 18 hours, read-out: minimum inhibitory concentration (M.I.C.)
# Description: as §1
# [9] = system: Pseudomonas aeruginosa A3; test: M.I.C. by standard serial dilution method; type: cell-based; conditions: P. aeruginosa A3, nutrient agar, 37° C, 18 hours, read-out: minimum inhibitory concentration (M.I.C.)
# Description: as §1
# [10] = system: Mycobacterium smegmatis ATCC 607; test: M.I.C. by standard serial dilution method; type: cell-based; conditions: Mycolicibacterium smegmatis, ATCC607, nutrient agar, 37° C, 48 hours, read-out: minimum inhibitory concentration (M.I.C.)
# Description: as §1
# [11] = system: Klebsiella pneumoniae PCI 602; test: M.I.C. by standard serial dilution method; type: cell-based; conditions: read-out: minimum inhibitory concentration (M.I.C.)
# Description: as §1
# Escherichia coli K-12 = test: M.I.C. by standard serial dilution method; type: cell-based; conditions: read-out: minimum inhibitory concentration (M.I.C.)
# Description: as §1
# [12] = system: Pseudomonas aeruginosa TI-13; test: M.I.C. by standard serial dilution method; type: cell-based; conditions: TI13, P. aeruginosa TI-13, nutrient agar, 37° C, 18 hours, read-out: minimum inhibitory concentration (M.I.C.)
# Description: as §1
# [13] = system: Pseudomonas aeruginosa 99; test: M.I.C. by standard serial dilution method; type: cell-based; conditions: P. aeruginosa 99, nutrient agar, 37° C, 18 hours, read-out: minimum inhibitory concentration (M.I.C.)
# Description: as §1
# Sarcina lutea PCl 1001 = test: M.I.C. by standard serial dilution method; type: cell-based; conditions: Micrococcus luteus, PCL1001, nutrient agar, 37° C, 18 hours, read-out: minimum inhibitory concentration (M.I.C.)
# Description: as §1
# [14] = system: Escherichia coli K-12 LA 290 R55; test: M.I.C. by standard serial dilution method; type: cell-based; conditions: K12LA290R55, 18 h, read-out: minimum inhibitory concentration (M.I.C.)
# Description: as §1
# Proteus rettgeri GN 466 = test: M.I.C. by standard serial dilution method; type: cell-based; conditions: Providencia rettgeri, GN466; Proteus rettgeri GN 466; nutrient agar, 37° C, 18 hours; read-out: minimum inhibitory concentration (M.I.C.)
# Description: as §1
# [15] = system: Escherichia coli K-12 ML 1410; test: M.I.C. by standard serial dilution method; type: cell-based; conditions: K12ML1410, E. coli K-12 ML 1410, nutrient agar, 37° C, 18 hours, read-out: minimum inhibitory concentration (M.I.C.)
# Description: as §1
# [16] = system: Pseudomonas aeruginosa No. 12; test: M.I.C. by standard serial dilution method; type: cell-based; conditions: P. aeruginosa No. 12, nutrient agar, 37° C, 18 hours, read-out: minimum inhibitory concentration (M.I.C.)
# Description: as §1
# Bacillus subtilis B-558 = test: M.I.C. by standard serial dilution method; type: cell-based; conditions: read-out: minimum inhibitory concentration (M.I.C.)
# Description: as §1
# [17] = system: Escherichia coli K-12 LA 290 R64; test: M.I.C. by standard serial dilution method; type: cell-based; conditions: K12LA290R64, 18 h, read-out: minimum inhibitory concentration (M.I.C.)
# Description: as §1
# [18] = system: Staphylococcus aureus FDA 209P; test: M.I.C. by standard serial dilution method; type: cell-based; conditions: FDA209P, S. aureus FDA 209P, nutrient agar, 37° C, 18 hours, read-out: minimum inhibitory concentration (M.I.C.)
# Description: as §1
# [19] = system: kanamycin-resistant bacteria; conditions: in words, prior work; cited from earlier work
# [20] = K. pneumoniae Type 22, No. 3038, nutrient agar, 37° C, 18 hours
# [21] = E. coli NIHJ, nutrient agar, 37° C, 18 hours
# [22] = K12W677, E. coli K-12 W677, nutrient agar, 37° C, 18 hours
# [23] = K12ML1629, E. coli K-12 ML 1629, nutrient agar, 37° C, 18 hours
# [24] = PCI602, K. pneumoniae PCI 602, nutrient agar, 37° C, 18 hours
# [25] = K12, E. coli K-12, nutrient agar, 37° C, 18 hours
# [26] = B558, B. subtilis B-558, nutrient agar, 37° C, 18 hours
smiles,measurement,setting,value
"NCC(O)C(=O)N[C@@H]1C[C@H](N)[C@@H](O[C@H]2O[C@H](CN)[C@@H](O)C[C@H]2N)[C@H](O[C@@H]2O[C@H](CO)[C@H](O)[C@H]2O)[C@H]1O (stereo partly drawn) [Compound No. 1, 1N-((RS)-3-amino-2-hydroxypropionyl)-3'-deoxy-5-O-β-D-xylofuranosylneamine]",MIC,[1],> 100 µg/mL
same,MIC,[2],3.12 µg/mL
same,MIC,[3],3.12 µg/mL
same,MIC,[4],6.25 µg/mL
same,MIC,[5],3.12 µg/mL
same,MIC,[6]; 18 h,1.56 µg/mL
same,MIC,Escherichia coli NIHJ; 18 h,1.56 µg/mL
same,MIC,"[7]; K12W677, 18 h",1.56 µg/mL
same,MIC,Salmonella typhosa T-63,1.56 µg/mL
same,MIC,"[8]; K12ML1629, 18 h",1.56 µg/mL
same,MIC,Proteus rettgeri GN 311,12.5 µg/mL
same,MIC,[9],6.25 µg/mL
same,MIC,[10],0.39 µg/mL
same,MIC,"[11]; PCI602, 18 h",1.56 µg/mL
same,MIC,"Escherichia coli K-12; K12, 18 h",1.56 µg/mL
same,MIC,[12],25 µg/mL
same,MIC,[13],12.5 µg/mL
same,MIC,Sarcina lutea PCl 1001,25 µg/mL
same,MIC,[14],3.12 µg/mL
same,MIC,Proteus rettgeri GN 466,3.12 µg/mL
same,MIC,[15],3.12 µg/mL
same,MIC,[16],12.5 µg/mL
same,MIC,"Bacillus subtilis B-558; B558, 18 h",1.56 µg/mL
same,MIC,[17],1.56 µg/mL
same,MIC,[18],3.12 µg/mL
NC[C@H]1O[C@H](O[C@H]2[C@H](O)[C@@H](O[C@H]3O[C@H](CO)[C@@H](O)[C@H](N)[C@H]3O)[C@H](N)C[C@@H]2N)[C@H](O)C[C@@H]1O [3'-deoxykanamycin A],antibacterial activity against resistant bacteria,[19],high antibacterial activity against the above-mentioned resistant bacteria
NCCC(O)C(=O)N[C@@H]1C[C@H](N)[C@@H](O[C@H]2O[C@H](CN)[C@@H](O)[C@H](O)[C@H]2O)[C@H](O)[C@H]1O[C@H]1O[C@H](CO)[C@@H](O)[C@H](N)[C@H]1O (stereo partly shown) [1-N-(4-amino-2-hydroxybutyryl)-kanamycin],antibacterial activity against resistant bacteria,[19],active against the kanamycin-resistant bacteria
"NCC[C@H](O)C(=O)N[C@@H]1C[C@H](N)[C@@H](O[C@H]2O[C@H](CN)[C@@H](O)C[C@H]2N)[C@H](O[C@@H]2O[C@H](CO)[C@H](O)[C@H]2O)[C@H]1O [compound 6, 1-N-((S)-4-amino-2-hydroxybutyryl)-3'-deoxy-5-O-β-D-xylofuranosylneamine]",MIC,[1],> 100 µg/mL
same,MIC,[2],0.39 µg/mL
same,MIC,[3],0.78 µg/mL
same,MIC,[4],1.56 µg/mL
same,MIC,[5],0.39 µg/mL
same,MIC,[6]; [20],0.39 µg/mL
same,MIC,Escherichia coli NIHJ; [21],0.78 µg/mL
same,MIC,[7]; [22],0.39 µg/mL
same,MIC,Salmonella typhosa T-63,0.78 µg/mL
same,MIC,[8]; [23],0.39 µg/mL
same,MIC,Proteus rettgeri GN 311,3.12 µg/mL
same,MIC,[9],3.12 µg/mL
same,MIC,[10],0.2 µg/mL
same,MIC,[11]; [24],0.39 µg/mL
same,MIC,Escherichia coli K-12; [25],0.39 µg/mL
same,MIC,[12],25 µg/mL
same,MIC,[13],12.5 µg/mL
same,MIC,Sarcina lutea PCl 1001,25 µg/mL
same,MIC,[14],0.78 µg/mL
same,MIC,Proteus rettgeri GN 466,0.78 µg/mL
same,MIC,[15],1.56 µg/mL
same,MIC,[16],25 µg/mL
same,MIC,Bacillus subtilis B-558; [26],0.2 µg/mL
same,MIC,[17],0.2 µg/mL
same,MIC,[18],0.39 µg/mL
NCCC(O)C(=O)N[C@@H]1C[C@H](N)[C@@H](O[C@H]2O[C@H](CN)CC[C@H]2N)[C@H](O)[C@H]1O[C@H]1O[C@H](CO)[C@@H](O)[C@H](N)[C@H]1O (stereo partly shown) [1-N-(4-amino-2-hydroxybutyryl)-DKB],antibacterial activity against resistant bacteria,[19],active against the kanamycin-resistant bacteria
NC[C@H]1O[C@H](O[C@H]2[C@H](O)[C@@H](O[C@H]3O[C@H](CO)[C@@H](O)[C@H](N)[C@H]3O)[C@H](N)C[C@@H]2N)[C@H](N)C[C@@H]1O [3'-deoxykanamycin B],antibacterial activity against resistant bacteria,[19],high antibacterial activity against the above-mentioned resistant bacteria
NCC(O)C(=O)N[C@@H]1C[C@H](N)[C@@H](O[C@H]2O[C@H](CN)[C@@H](O)[C@H](O)[C@H]2O)[C@H](O)[C@H]1O[C@H]1O[C@H](CO)[C@@H](O)[C@H](N)[C@H]1O (stereo partly shown) [1-N-isoserylkanamycin],antibacterial activity against resistant bacteria,[19],active against the kanamycin-resistant bacteria
"NCC[C@H](O)C(=O)N[C@@H]1C[C@H](N)[C@@H](O[C@H]2O[C@H](CN)[C@@H](O)C[C@H]2N)[C@H](O[C@@H]2O[C@H](CO)[C@@H](O)[C@H]2O)[C@H]1O [Compound No. 5, 1-N-((S)-4-amino-2-hydroxybutyryl)-3'-deoxy-5-O-β-D-ribofuranosylneamine]",MIC,[1],> 100 µg/mL
same,MIC,[2],0.39 µg/mL
same,MIC,[3],1.56 µg/mL
same,MIC,[5],1.56 µg/mL
same,MIC,[6]; [20],0.78 µg/mL
same,MIC,Escherichia coli NIHJ; [21],0.78 µg/mL
same,MIC,[7]; [22],0.39 µg/mL
same,MIC,Salmonella typhosa T-63,0.39 µg/mL
same,MIC,[8]; [23],0.39 µg/mL
same,MIC,Proteus rettgeri GN 311,3.12 µg/mL
same,MIC,[9],3.12 µg/mL
same,MIC,[10],< 0.2 µg/mL
same,MIC,[11]; [24],0.39 µg/mL
same,MIC,Escherichia coli K-12; [25],0.2 µg/mL
same,MIC,[12],25 µg/mL
same,MIC,[13],12.5 µg/mL
same,MIC,Sarcina lutea PCl 1001,25 µg/mL
same,MIC,[14],0.78 µg/mL
same,MIC,Proteus rettgeri GN 466,0.78 µg/mL
same,MIC,[15],0.78 µg/mL
same,MIC,[16],25 µg/mL
same,MIC,Bacillus subtilis B-558; [26],< 0.2 µg/mL
same,MIC,[17],0.2 µg/mL
same,MIC,[18],0.39 µg/mL
NCC(O)C(=O)N[C@@H]1C[C@H](N)[C@@H](O[C@H]2O[C@H](CN)[C@@H](O)[C@H](O)[C@H]2N)[C@H](O)[C@H]1O[C@H]1O[C@H](CO)[C@@H](O)[C@H](N)[C@H]1O (stereo partly shown) [1-N-isoserylkanamycin B],antibacterial activity against resistant bacteria,[19],active against the kanamycin-resistant bacteria
NCC(O)C(=O)N[C@@H]1C[C@H](N)[C@@H](O[C@H]2O[C@H](CN)CC[C@H]2N)[C@H](O)[C@H]1O[C@H]1O[C@H](CO)[C@@H](O)[C@H](N)[C@H]1O (stereo partly shown) [1-N-isoseryl-DKB],antibacterial activity against resistant bacteria,[19],active against the kanamycin-resistant bacteria
NC[C@H]1O[C@H](O[C@H]2[C@H](O[C@@H]3O[C@H](CO)[C@@H](O)[C@H]3O)[C@@H](O)[C@H](N)C[C@@H]2N)[C@H](N)C[C@@H]1O [3'-deoxyribostamycin],antibacterial activity against resistant bacteria,[19],high antibacterial activity against the above-mentioned resistant bacteria
